Data: patent US9783552B2, “Soluble guanylate cyclase activators” (MERCK SHARP & DOHME CORP., priority 2013, dated 2017)

Biological target: T1, sGC α1/β1 heterodimer (Homo sapiens, UniProt Q02108+Q02153)
T1 construct: expressed in transfected cells
T1 sequence (Q02108 1-690): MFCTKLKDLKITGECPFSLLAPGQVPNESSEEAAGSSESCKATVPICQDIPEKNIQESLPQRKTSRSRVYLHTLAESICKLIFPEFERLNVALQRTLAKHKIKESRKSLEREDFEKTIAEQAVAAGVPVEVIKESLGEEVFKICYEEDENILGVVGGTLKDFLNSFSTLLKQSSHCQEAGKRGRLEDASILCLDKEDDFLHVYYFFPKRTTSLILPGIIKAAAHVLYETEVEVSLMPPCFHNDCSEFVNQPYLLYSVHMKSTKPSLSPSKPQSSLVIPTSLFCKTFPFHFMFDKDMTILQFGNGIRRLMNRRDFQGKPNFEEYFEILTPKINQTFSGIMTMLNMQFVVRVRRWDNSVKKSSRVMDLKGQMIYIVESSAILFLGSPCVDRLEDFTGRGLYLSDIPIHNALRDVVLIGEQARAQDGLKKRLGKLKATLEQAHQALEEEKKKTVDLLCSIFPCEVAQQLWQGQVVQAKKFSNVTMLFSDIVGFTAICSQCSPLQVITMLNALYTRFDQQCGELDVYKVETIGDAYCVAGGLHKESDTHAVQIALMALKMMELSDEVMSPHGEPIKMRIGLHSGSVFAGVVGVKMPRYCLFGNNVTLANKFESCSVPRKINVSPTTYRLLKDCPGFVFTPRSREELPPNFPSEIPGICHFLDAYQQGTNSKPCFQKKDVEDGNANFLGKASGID
T1 sequence (Q02153 1-619): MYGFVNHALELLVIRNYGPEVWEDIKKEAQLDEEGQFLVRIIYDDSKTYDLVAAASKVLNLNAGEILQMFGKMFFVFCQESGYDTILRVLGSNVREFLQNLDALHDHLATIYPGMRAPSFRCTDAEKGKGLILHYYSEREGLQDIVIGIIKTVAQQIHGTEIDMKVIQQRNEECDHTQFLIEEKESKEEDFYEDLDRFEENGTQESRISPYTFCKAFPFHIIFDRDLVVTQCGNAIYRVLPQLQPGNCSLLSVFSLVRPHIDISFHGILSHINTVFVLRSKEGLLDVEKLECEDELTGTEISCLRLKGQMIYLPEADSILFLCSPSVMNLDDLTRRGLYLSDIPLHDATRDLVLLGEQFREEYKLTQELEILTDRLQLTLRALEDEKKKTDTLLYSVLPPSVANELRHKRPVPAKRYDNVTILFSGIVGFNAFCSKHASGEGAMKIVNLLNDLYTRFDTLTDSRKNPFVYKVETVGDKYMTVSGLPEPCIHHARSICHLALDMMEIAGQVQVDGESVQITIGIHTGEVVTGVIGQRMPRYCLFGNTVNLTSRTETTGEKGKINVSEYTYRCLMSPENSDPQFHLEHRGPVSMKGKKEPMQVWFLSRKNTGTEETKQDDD
Assay: Cell-Based sGC Functional Assay (CASA Assay)
Conditions: CHO-K1/sGC cells; for EC50: intracellular cGMP by HTRF, 1 hr at 37° C., IP from 4P fit, presence or absence of 1 μM DETA-NO not given; for Emax: cGMP as percentage of maximum cGMP production of Compound A (=100% activation), read-out: % ACT (percent activation)
Description: Biological Assays: Cell-Based sGC Functional Assay (CASA Assay)
sGC is a heme-containing enzyme that converts GTP to secondary messenger cGMP. Increases in cGMP levels affect several physiological processes including vasorelaxation through multiple downstream pathways. […] Heme-dependent activators (HDAs) preferentially activate sGC containing a ferrous heme group. To determine the effect of sGC activators on enzyme activity, the CASA assay was developed to monitor the generation of cGMP in a cell line that stably expresses the heterodimeric sGC protein.
A CHO-K1 cell line stably expressing the sGC α1/β1 heterodimer was generated using a standard transfection protocol. CHO-K1 cells were transfected with plasmids pIREShyghsGCα1 and pIRESneo-hsGCβ1 simultaneously using FUGENE reagent. Clones that stably express both subunits were selected with hygromycin and neomycin for ˜2 weeks. Clone #7 was chosen for the assay and was designated CHO-K1/sGC. CHO-K1/sGC cells were maintained in F-K12 medium containing 10% heat-inactivated Fetal Bovine Serum (FBS), 100 μg/mL penicillin/streptomycin, 0.5 mg/mL hygromycin and 0.25 mg/mL G418. The cells were then cryopreserved in LN2. On the day of the assay, cells were thawed and resuspended in EBSS Assay Buffer (EAB, Sigma, E3024) supplemented with 5 mM MgCl2, 10 mM HEPES (4-(2-hydroxyethyl)piperazine-1-ethanesulfonic acid) and 0.05% BSA (bovine serum albumin) and cell density was then adjusted to 4×10^5/mL with EAB. IBMX (3-isobutyl-1-methylxanthin, 0.5 mM) was added to inhibit degradation of cGMP. Compounds were diluted from DMSO stock solutions and added to the assay at a final DMSO concentration of 2.5%. Cells were incubated with compounds in the presence and absence of 1 μM of Diethylenetriamine/nitric oxide adduct (DETA-NO; Sigma, 17018) for 1 hr at 37° C. At the end of the incubation period, the reaction was terminated and the cells were lysed with the detection reagents from Cisbio Kits. The level of intracellular cGMP was determined using an HTRF-based assay kit (CisBio, 62GM2PEC), which detects the displacement of a fluorescence labeled cGMP from its specific antibody. The cGMP produced by test compounds was directly compared to the maximum cGMP production (this value was set to equal 100% activation) of the published sGC-HDA Compound A:
[drawing 123] (Example 1 in WO 2010/065275, published Jun. 10, 2010). The test compounds' activity was then expressed as a percentage of Compound A, the standard in every experiment. This percent activation was calculated either in the presence or absence of DETA-NO which was then plotted. IP and maximum fold induction was derived using ADA analysis software for 4P fit.

Structure (SMILES)	EC50	Emax
[2H]C([2H])([2H])n1ncc2c(-c3nc(N)c4c(n3)NC(=O)C4(CC)C(=O)NC3CC3)nc(CCC(F)(F)C(F)(F)F)nc21 (single isomer, unassigned) [Example 34, 4-Amino-N-cyclopropyl-5-ethyl-2-(6-(3,3,4,4,4-pentafluorobutyl)-1-trideuteriomethyl-1H-pyrazolo[3,4-d]pyrimidin-4-yl)-6-oxo-6,7-dihydro-5H-pyrrolo[2,3-d]pyrimidine-5-carboxamide]	143 nM	122%
[2H]C([2H])([2H])n1nnc2c(-c3nc(N)c4c(n3)NC(=O)C4(C)c3ccc(F)c(OC)c3)nc(CCC(F)(F)C(F)(F)F)nc21 (single isomer, unassigned) [Example 72, 4-Amino-5-(4-fluoro-3-methoxyphenyl)-5-methyl-2-(5-(3,3,4,4,4-pentafluorobutyl-3-trideuteriomethyl)-3H-[1,2,3]triazolo[4,5-d]pyrimidin-7-yl)-5H-pyrrolo[2,3-d]pyrimidin-6(7H)-one]	424 nM	66%
CCn1ncc2c(-c3nc(N)c4c(n3)NC(=O)C4(C(=O)NC3CC3)C3CC3)nc(CCC(F)(F)C(F)(F)F)nc21 (single isomer, unassigned) [Example 38, 4-Amino-N,5-dicyclopropyl-2-(1-ethyl-6-(3,3,4,4,4-pentafluorobutyl)-1H-pyrazolo[3,4-d]pyrimidin-4-yl)-6-oxo-6,7-dihydro-5H-pyrrolo[2,3-d]pyrimidine-5-carboxamide]	648 nM	112%
[2H]C([2H])([2H])n1ncc2c(-c3nc(N)c4c(n3)NC(=O)C4(C)c3cccc(O)c3)nc(CCC(F)(F)C(F)(F)F)nc21 (centres unmarked) [Example 44, 4-Amino-5-(3-hydroxyphenyl)-5-methyl-2-(6-(3,3,4,4,4-pentafluorobutyl)-1-trideuteriomethyl-1H-pyrazolo[3,4-d]pyrimidin-4-yl)-5H-pyrrolo[2,3-d]pyrimidin-6(7H)-one]	111 nM	88%
CC(C)NC1(C)C(=O)Nc2nc(-c3nc(CCC(F)(F)C(F)(F)F)nc4c3cnn4C)nc(N)c21 (centres unmarked) [Example 55, 4-Amino-5-(isopropylamino)-5-methyl-2-(1-methyl-6-(3,3,4,4,4-pentafluorobutyl)-1H-pyrazolo[3,4-d]pyrimidin-4-yl)-5H-pyrrolo[2,3-d]pyrimidin-6(7H)-one]	119 nM	118%
[2H]C([2H])([2H])n1nnc2c(-c3nc(N)c4c(n3)NC(=O)C4(C)c3ccc(Cl)cc3)nc(CCC(F)(F)C(F)(F)F)nc21 (single isomer, unassigned) [Example 70, 4-Amino-5-(4-chlorophenyl)-5-methyl-2-(5-(3,3,4,4,4-pentafluorobutyl-3-trideuteriomethyl)-3H-[1,2,3]triazolo[4,5-d]pyrimidin-7-yl)-5H-pyrrolo[2,3-d]pyrimidin-6(7H)-one]	327 nM	95%
[2H]C([2H])([2H])n1ncc2c(-c3nc(O)c4c(n3)NC(=O)C4(C)c3ccc(F)cc3)nc(CCC(F)(F)C(F)(F)F)nc21 (centres unmarked) [Example 48, 5-(4-Fluorophenyl)-4-hydroxy-5-methyl-2-(6-(3,3,4,4,4-pentafluorobutyl)-1-trideuteriomethyl-1H-pyrazolo[3,4-d]pyrimidin-4-yl)-5H-pyrrolo[2,3-d]pyrimidin-6(7H)-one]	664 nM	93%
[2H]C([2H])([2H])n1ncc2c(-c3nc(N)c4c(n3)NC(=O)C4(C)c3ccc(-c4cnn(C)c4)cc3)nc(CCC(F)(F)C(F)(F)F)nc21 (single isomer, unassigned) [Example 46, 4-Amino-5-methyl-5-(4-(1-methyl-1H-pyrazol-4-yl)phenyl)-2-(6-(3,3,4,4,4-pentafluorobutyl)-1-trideuteriomethyl-1H-pyrazolo[3,4-d]pyrimidin-4-yl)-5H-pyrrolo[2,3-d]pyrimidin-6(7H)-one]	90 nM	91%

Now those with a lower EC50, led by results:

EC50	Emax	Structure (SMILES)
53 nM	122%	Cn1ncc2c(-c3nc(N)c4c(n3)NC(=O)C4(C)c3ccc(F)cc3)nc(CC3CC(F)(F)C3)nc21 (single isomer, unassigned) [Example 5, 4-Amino-2-(6-((3,3-difluorocyclobutyl)methyl)-1-methyl-1H-pyrazolo[3,4-d]pyrimidin-4-yl)-5-(4-fluorophenyl)-5-methyl-5H-pyrrolo[2,3-d]pyrimidin-6(7H)-one]
53 nM	112%	Cn1ncc2c(-c3nc(N)c4c(n3)NC(=O)C4(C(=O)NC3CC3)C3CC3)nc(CCC(F)(F)C(F)(F)F)nc21 (single isomer, unassigned) [Example 33, 4-Amino-N,5-dicyclopropyl-2-(1-methyl-6-(3,3,4,4,4-pentafluorobutyl)-1H-pyrazolo[3,4-d]pyrimidin-4-yl)-6-oxo-6,7-dihydro-5H-pyrrolo[2,3-d]pyrimidine-5-carboxamide]
43 nM	104%	[2H]C([2H])([2H])n1ncc2c(-c3nc(N)c4c(n3)NC(=O)C4(C)C(=O)NCC)nc(CCC(F)(F)C(F)(F)F)nc21 (single isomer, unassigned) [Example 39, 4-Amino-N-ethyl-5-methyl-2-(6-(3,3,4,4,4-pentafluorobutyl)-1-trideuteriomethyl-1H-pyrazolo[3,4-d]pyrimidin-4-yl)-6-oxo-6,7-dihydro-5H-pyrrolo[2,3-d]pyrimidine-5-carboxamide]
21 nM	110%	[2H]C([2H])([2H])n1ncc2c(-c3nc(N)c4c(n3)NC(=O)C4(C)c3cccc(OC)c3)nc(CCC(F)(F)C(F)(F)F)nc21 (single isomer, unassigned) [Example 14, 4-Amino-5-(3-methoxyphenyl)-5-methyl-2-(6-(3,3,4,4,4-pentafluorobutyl)-1-trideuteriomethyl-1H-pyrazolo[3,4-d]pyrimidin-4-yl)-5H-pyrrolo[2,3-d]pyrimidin-6(7H)-one]
15 nM	112%	COc1ccc(C2(C)C(=O)Nc3nc(-c4nc(CCC(F)(F)C(F)(F)F)nc5c4cnn5C)nc(N)c32)cc1F (single isomer, unassigned) [Example 16, 4-Amino-5-(3-fluoro-4-methoxyphenyl)-5-methyl-2-(1-methyl-6-(3,3,4,4,4-pentafluorobutyl)-1H-pyrazolo[3,4-d]pyrimidin-4-yl)-5H-pyrrolo[2,3-d]pyrimidin-6(7H)-one]
